Reference: ChEMBL document CHEMBL1275486, “Kinetic characterization of VIM-7, a divergent member of the VIM metallo-beta-lactamase family” (Antimicrob Agents Chemother, 2008)

Key:
[1] = system: Escherichia coli; test: Activity of Escherichia coli beta-lactamase VIM-1 by spectrophotometry
[2] = system: Escherichia coli; test: Ratio of Kcat to Km for Escherichia coli beta-lactamase VIM-1 by spectrophotometry

| SMILES | Km [1] [µM] | kcat [1] [s⁻¹] | kcat/Km [2] [M⁻¹ s⁻¹] |
| --- | --- | --- | --- |
| CC(=O)OCC1=C(C(=O)O)N2C(=O)[C@@H](NC(=O)Cc3cccs3)[C@H]2SC1 | 55 | 280 | 5.1e+06 |
| CC(C)(O/N=C(\C(=O)N[C@@H]1C(=O)N2C(C(=O)[O-])=C(C[n+]3ccccc3)CS[C@H]12)c1csc(N)n1)C(=O)O | 800 | 60 | 75000 |
| CC1(C)S[C@@H]2[C@H](NC(=O)C(C(=O)O)c3ccccc3)C(=O)N2[C@H]1C(=O)O (some centres undefined) | 75 | 170 | 2.3e+06 |
| CC1(C)S[C@@H]2[C@H](NC(=O)Cc3ccccc3)C(=O)N2[C@H]1C(=O)O | 840 |  | 36000 |
| CC1(C)S[C@@H]2[C@H](NC(=O)[C@H](N)c3ccccc3)C(=O)N2[C@H]1C(=O)O | 920 | 35 | 38000 |
| CC1(C)S[C@@H]2[C@H](NC(=O)[C@H](NC(=O)N3CCNC3=O)c3ccccc3)C(=O)N2[C@H]1C(=O)O | 120 | 1500 | 1.25e+07 |
| CC1(C)[C@H](C(=O)O)N2C(=O)C[C@H]2S1(=O)=O | 200 | 10 | 50000 |
| CCN1CCN(C(=O)N[C@@H](C(=O)N[C@@H]2C(=O)N3[C@@H]2SC(C)(C)[C@@H]3C(=O)O)c2ccccc2)C(=O)C1=O | 3500 | 1900 | 540000 |
| CO/N=C(\C(=O)N[C@@H]1C(=O)N2C(C(=O)O)=C(COC(C)=O)CS[C@H]12)c1csc(N)n1 | 250 | 170 | 680000 |
| CO/N=C(\C(=O)N[C@@H]1C(=O)N2C(C(=O)O)=C(COC(N)=O)CS[C@H]12)c1ccco1 | 42 | 325 | 7.7e+06 |
